24 compounds from ChEMBL document CHEMBL3102774, “Semisynthesis of salviandulin E analogues and their antitrypanosomal activity” (Bioorg Med Chem Lett, 2014) can be followed below.

Structures are written as SMILES. Values after ≈ are worked out from the molar mass of the structure shown.

A short description of data set [1]: Selectivity index, ratio of IC50 for human MRC5 cells to IC50 for Trypanosoma brucei brucei GUTat 3.1. In kind it is toxicity, cell-based. To be noted: read-out: Ratio IC50.
The next data set has as its system MRC5. Put plainly: Cytotoxicity against human MRC5 cells. In kind it is cell-based.
For data set [2], the system named is Trypanosoma brucei brucei. Description: Antitrypanosomal activity against Trypanosoma brucei brucei GUTat 3.1 after 72 hrs by AlamarBlue assay. The note with it: GUTat 3.1, 72 h. In kind it is functional, organism-based.

For the compound `CC(=O)O[C@H]1C=C2C(=O)OC[C@]23C=CC2=C(C(C)=C3C1)[C@H](c1ccoc1)OC2=O`, the selectivity ratio in data set [1] was determined as 1.22. The 50% inhibitory concentration (IC50) stood at 0.84 µg/mL (≈ 2.13 µM) in the data set on MRC5 and 0.69 µg/mL (≈ 1.75 µM) in data set [2].

Take `NCCCC(N)(C(=O)O)C(F)F` (stereo not given) [EFLORNITHINE]: the selectivity ratio in data set [1] was more than 44. In the data set with MRC5, this compound came in with an IC50 of more than 100 µg/mL.

As for `CC1=C2C[C@@H](OC(=O)Nc3ccccc3)C[C@H]3C(=O)OC[C@@]23C=CC2=C1[C@H](c1ccoc1)OC2=O`, the selectivity ratio in data set [1] is more than 9.5. In addition, the 50% inhibitory concentration (IC50) in the data set on MRC5 is more than 100 µg/mL; in data set [2] it was 10.5 µg/mL (≈ 22.3 µM).

`CCCNC(=O)O[C@@H]1CC2=C(C)C3=C(C=C[C@]24COC(=O)[C@@H]4C1)C(=O)O[C@H]3c1ccoc1`: in data set [1], the selectivity ratio was 8.51. For the same compound, the figures for the IC50 (in the data set on MRC5; in data set [2]) were 66.2 µg/mL (≈ 151 µM) and 7.77 µg/mL (≈ 17.7 µM), respectively.

On to `CCNC(=O)O[C@H]1C=C2C(=O)OC[C@]23C=CC2=C(C(C)=C3C1)[C@H](c1ccoc1)OC2=O`, for which the selectivity ratio in data set [1] is 0.9. Also, the IC50 with MRC5 stood at 0.18 µg/mL (≈ 0.425 µM); in data set [2], 0.2 µg/mL (≈ 0.472 µM).

`CC1=C2CCC=C3C(=O)OC[C@]32CCC2=C1[C@H](c1ccoc1)OC2=O`: the half-maximal inhibitory concentration (IC50) is 16.2 µg/mL (≈ 47.8 µM) in the data set on MRC5 and more than 12.5 µg/mL in data set [2].

On to `CC1=C2C[C@@H](O)C[C@H]3C(=O)OC[C@@]23C=CC2=C1[C@H](c1ccoc1)OC2=O`, for which the half-inhibitory concentration (IC50) in data set [2] is more than 12.5 µg/mL.

Consider `CCC(=O)O[C@H]1C=C2C(=O)OC[C@]23C=CC2=C(C(C)=C3C1)[C@H](c1ccoc1)OC2=O`, for which the selectivity ratio in data set [1] was found to be 0.59. Further, the IC50 came out at 1.41 µg/mL (≈ 3.45 µM) in the data set on MRC5 and 2.39 µg/mL (≈ 5.85 µM) in data set [2].

As to `CC1=C2C[C@@H](OC(=O)Nc3ccccc3)C=C3C(=O)OC[C@]32C=CC2=C1[C@H](c1ccoc1)OC2=O`, the selectivity ratio in data set [1] was 2.41. In addition, the half-inhibitory concentration (IC50) in the data set with MRC5 amounted to 17.3 µg/mL (≈ 36.6 µM); in data set [2] it was 7.17 µg/mL (≈ 15.2 µM).

Turning to `CC1=C2C=CC[C@H]3C(=O)OC[C@@]23C=CC2=C1[C@H](c1ccoc1)OC2=O`, in data set [2], the concentration for half-maximal inhibition (IC50) was more than 12.5 µg/mL.

Take `CCCCNC(=O)O[C@H]1C=C2C(=O)OC[C@]23C=CC2=C(C(C)=C3C1)[C@H](c1ccoc1)OC2=O`: the selectivity ratio in data set [1] was 7.29. Also, the IC50 was determined as 44.3 µg/mL (≈ 98.1 µM) in the data set on MRC5 and 6.08 µg/mL (≈ 13.5 µM) in data set [2].

As for `CCNC(=O)O[C@@H]1CC2=C(C)C3=C(C=C[C@]24COC(=O)[C@@H]4C1)C(=O)O[C@H]3c1ccoc1`, in data set [2], the IC50 was more than 12.5 µg/mL.

As to `CCCC(=O)O[C@H]1C=C2C(=O)OC[C@]23C=CC2=C(C(C)=C3C1)[C@H](c1ccoc1)OC2=O`, the selectivity ratio in data set [1] is 1.01. The figures for the half-inhibitory concentration (IC50) (in the data set on MRC5; in data set [2]) were 1.05 µg/mL (≈ 2.49 µM) and 1.04 µg/mL (≈ 2.46 µM), respectively.

Take `COCO[C@H]1C=C2C(=O)OC[C@]23C=CC2=C(C(C)=C3C1)[C@H](c1ccoc1)OC2=O`: in data set [1], the selectivity ratio is 1.73. In addition, the values for the IC50 (in the data set with MRC5; in data set [2]) were 2 µg/mL (≈ 5.05 µM) and 1.15 µg/mL (≈ 2.9 µM), respectively.

Consider `CCCC(=O)OC1=CC2=C(C)C3=C(C=C[C@]24COC(=O)[C@@H]4C1)C(=O)O[C@H]3c1ccoc1`, for which, in data set [1], the selectivity ratio was 5.54. Besides, the results for the concentration for half-maximal inhibition (IC50) (in the data set with MRC5; in data set [2]) were 21.6 µg/mL (≈ 51 µM) and 3.89 µg/mL (≈ 9.21 µM), respectively.

In the case of `COCO[C@@H]1CC2=C(C)C3=C(C=C[C@]24COC(=O)[C@@H]4C1)C(=O)O[C@H]3c1ccoc1`, in data set [2], the IC50 is more than 12.5 µg/mL.

As to `CCC(=O)OC1=CC2=C(C)C3=C(C=C[C@]24COC(=O)[C@@H]4C1)C(=O)O[C@H]3c1ccoc1`, the selectivity ratio in data set [1] is 4.06. The figures for the IC50 (in the data set on MRC5; in data set [2]) were 22.6 µg/mL (≈ 55.3 µM) and 5.56 µg/mL (≈ 13.6 µM), respectively.

For the compound `CC1=C2C[C@@H](O)C=C3C(=O)OC[C@]32C=CC2=C1[C@H](c1ccoc1)OC2=O`, the selectivity ratio in data set [1] was 1.17. The results for the IC50 (in the data set on MRC5; in data set [2]) were 0.84 µg/mL (≈ 2.38 µM) and 0.72 µg/mL (≈ 2.04 µM), respectively.

Consider `CCCC(=O)O[C@@H]1CC2=C(C)C3=C(C=C[C@]24COC(=O)[C@@H]4C1)C(=O)O[C@H]3c1ccoc1`, for which the selectivity ratio in data set [1] worked out at 1240. Also, the results for the IC50 (in the data set on MRC5; in data set [2]) were 68 µg/mL (≈ 160 µM) and 0.055 µg/mL (≈ 0.13 µM), respectively.

As to `CC(=O)OC1=CC2=C(C)C3=C(C=C[C@]24COC(=O)[C@@H]4C1)C(=O)O[C@H]3c1ccoc1`, the selectivity ratio in data set [1] was 4.14. Besides, the concentration for half-maximal inhibition (IC50) with MRC5 amounted to 17.8 µg/mL (≈ 45.1 µM); in data set [2], 4.29 µg/mL (≈ 10.9 µM).

For the compound `N=C(N)c1ccc(OCCCCCOc2ccc(C(=N)N)cc2)cc1` [PENTAMIDINE], in data set [1], the selectivity ratio came to 3350. The half-maximal inhibitory concentration (IC50) in data set [2] amounted to 0.0017 µg/mL (≈ 0.00499 µM).

With `CC(=O)O[C@@H]1CC2=C(C)C3=C(C=C[C@]24COC(=O)[C@@H]4C1)C(=O)O[C@H]3c1ccoc1`, the selectivity ratio in data set [1] was more than 12.9. For the same compound, the concentration for half-maximal inhibition (IC50) in the data set with MRC5 was more than 100 µg/mL; in data set [2] it was 7.73 µg/mL (≈ 19.5 µM).

As to `CCC(=O)O[C@@H]1CC2=C(C)C3=C(C=C[C@]24COC(=O)[C@@H]4C1)C(=O)O[C@H]3c1ccoc1`, in data set [1], the selectivity ratio was 11.9. For the same compound, the IC50 with MRC5 was found to be 63.5 µg/mL (≈ 155 µM); in data set [2], 5.33 µg/mL (≈ 13 µM).

`Cc1ccc(C(=O)Nc2ccc(S(=O)(=O)O)c3cc(S(=O)(=O)O)cc(S(=O)(=O)O)c23)cc1NC(=O)c1cccc(NC(=O)Nc2cccc(C(=O)Nc3cc(C(=O)Nc4ccc(S(=O)(=O)O)c5cc(S(=O)(=O)O)cc(S(=O)(=O)O)c45)ccc3C)c2)c1` [SURAMIN]: the selectivity ratio in data set [1] was more than 63. The IC50 with MRC5 is more than 100 µg/mL.
